Experimental data reported in patent publication US8975259B2, “Compositions and methods for inhibiting G protein signaling” (University of Rochester, priority 2007, dated 2015).
Entries after “also recorded” stand apart in the source; their conditions may differ.

Tests used:
[1] = test system: differentiated HL60 cells; assay: fMLP-induced chemotaxis of differentiated HL60 cells (Boyden chamber); format: cell-based, human; details: 10 μM compound, 250 nM fMLP; result in words
Method: Same as A with purified human neutrophils.
Differentiated HL60 cells (200 k) were pretreated with 10 μM concentrations of the indicated compound, challenged with 250 nM fMLP, and assayed for chemotaxis in a Boyden chamber for 1 h at 37° C. […] Chemotaxis was quantified as above by subtracting out background cells (0-10 cells) in the absence of chemoattractant to obtain total transmigrated cells (−100 cells GM-CSF+vehicle) and represented as the percentage of GM-CSF-treated control cells. No statistically significant difference from control was seen by ANOVA. […] Primary human neutrophils were isolated from whole blood to ≧80% purity. Neutrophils (2×10^5) were pretreated with gallein (10 μM), M119 (10 μM), M119B (10 μM), or wortmannin (wtmn.) (1 μM) and then challenged with 250 nM fMLP or 10 nM IL-8 to evaluate chemotaxis in a Boyden chamber for 1 h at 37° C. […] NS, not statistically different from control. […] Primary human neutrophils were isolated and treated (250 nM fMLP±gallein) as described above. Chemotaxis was quantified as above by subtracting out background cells to obtain total transmigrated cells and represented as the percentage of fMLP-treated control cells. Data shown are pooled from two independent experiments, each in duplicate, ±S.E.M.
Chemotaxis was assayed using a Boyden chamber (Neuro Probe, Gaithersburg, Md.) using 3-μm polyvinylpyrrolidone-free polycarbonate filters (Neuro Probe). HL60 cells (differentiated for 4 days) were washed with and resuspended in HBSS containing 1% bovine serum albumin to a final concentration of 1×10^6 cells/ml. Primary human neutrophils were washed and resuspended in NaCl buffer (140 mM NaCl, 4 mM KCl, 10 mM D-glucose, 10 mM HEPES, pH 7.4, 1 mM MgCl2, and 1 mM CaCl2) to a final concentration of 1×10^6 cells/mi. Chemoattractant [1 μM granulocyte-macrophage-colony stimulating factor (GM-CSF), 10 nM IL-8, or 250 nM fMLP; Sigma Aldrich] was added to the bottom chamber in HBSS containing 1% bovine serum albumin.

[2] = test system: NADPH oxidase activity in fMLP-challenged HL60 cells; assay: fMLP-dependent superoxide production (NBT) in differentiated HL60 cells; format: cell-based, human; details: 10 μM compounds or 100 nM wortmannin, 250 nM fMLP; result in words
Method: Differentiated HL60 cells stably expressing GFP-PH-Akt were challenged with 250 nM fMLP in the presence and absence of 10 μM concentrations of the indicated compounds. Translocation of GFP-PH-Akt to the plasma membrane was evaluated by Western blot. Quantification shown below. ***, P<0.001 analysis of variance (ANOVA) is statistically different from control (PBS+vehicle). […] Differentiated HL60 cells were challenged with 1 μM fMLP in the presence and absence of 10 μM concentrations of the indicated compounds. Rac1 activation was assessed by Western blots of affinity-precipitated GTP-Rac1 from HL60 cell lysates. Western blot shown is representative of three independent experiments and quantitation contains data pooled from three independent experiments±S.E.M. *P<0.05 ANOVA is statistically different from control (DMSO only). n=3. […] Differentiated HL60 cells were challenged with 250 nM fMLP or 250 nM PMA in the presence and absence of 10 μM compounds or 100 nM Wortmannin (Wtmn). NADPH oxidase activity was determined after reaction with NBT by absorbance at 540 nm. Data shown is contains data pooled from three independent experiments (each in duplicate)±S.E.M. *, P<0.05 ANOVA is statistically different from control (DMSO only).
The nitro blue tetrazolium (NBT) method was used to assess the effects of Gβγ inhibitors on NADPH oxidase activity. HL60 cells (differentiated for 4 days) were washed with and resuspended in HBSS containing calcium and magnesium (Cellgro; Mediatech, Herndon Va.) to a final concentration of 2×10^6 cells/ml. Cells (1×10^6/reaction) were pretreated with 10 μMGβγ inhibitor compound (in DMSO) or 100 nM wortmannin (Sigma Aldrich) for 10 min at 37° C. before the addition of NBT (25 μl of 10 mg/ml in methanol) and then incubated or an additional 5 min at 37° C. All treatments contained the same final concentration of DMSO. […] Cell pellets were then resuspended in 200 μl of DMSO, transferred to a 96-well plate, and absorbance was measured at 540 nm. […]

[3] = test system: isolated adult mouse cardiomyocytes; assay: Contractility of isolated adult mouse cardiomyocytes; format: cell-based; details: result in words
Method: Pretreatment with the general β-AR antagonist, propranolol, abolishes the effects of M119 and Iso on cardiomyocyte contractility.
The above data led to investigations that M119 plays a positive functional role in the heart, due in part to its inhibition of Gβγ-GRK2 interactions. Prior to pursuing in vivo studies with M119, the role of M119 affecting contractility was evaluated by assessment of isolated adult mouse cardiomyocyte contractility at baseline and in response to β-AR stimulation.
Mechanical properties of ventricular myocytes are assessed by an IonOptix Myocam system (IonOptix Inc., Milton, Mass., U.S.A.). Myocytes are superfused (at 25° C.) with Tyrodes, cells are pre-loaded in culture medium for 20 minutes with Fura-2, for concurrent calcium flux and myocyte contractility following field stimulation at 0.5 Hz.

Structure (SMILES) | effect on fMLP-induced chemotaxis [1] | effect on fMLP-dependent superoxide production [2] | effect on cardiomyocyte contractility at baseline and with isoproterenol [3]
O=C(O)c1ccccc1-c1c2ccc(=O)c(O)c-2oc2c(O)c(O)ccc12 (racemic) [Gallein] | inhibited | significantly inhibited | significant positive effects
O=C(O)C1CCCCC1c1c2ccc(=O)c(O)c-2oc2c(O)c(O)ccc12 (stereo not drawn) [Compound M119, cyclohexanecarboxylic acid, 2-(4,5,6-trihydroxy-3-oxo-3H-xanthen-9-yl)-(9cl)] | significantly blunted migration; also recorded: inhibited | significantly inhibited | enhanced
O=C(O)C1CCCCC1c1c2ccc(=O)cc-2oc2cc(O)ccc12 (stereo not drawn) [Compound M119B] | no effect on migration | did not significantly affect | no effect
